According to US20080261973A1, “Sulphonamidoaniline Derivatives Being Janus Kinase Inhibitors” (Novartis AG, priority 2005, published 2008):

**Q.** For CC(C)NCCNc1nc(Nc2cccc(NS(C)(=O)=O)c2)nc2[nH]ccc12 [Example 82, N-{3-[4-(2-Isopropylamino-ethylamino)-7H-pyrrolo[2,3-d]pyrimidin-2-ylamino]-phenyl}-methanesulfonamide], which melting point is on record?
**A.** 127 to 131 °C

**Q.** For Cc1cn(-c2nc(Nc3cccc(NS(C)(=O)=O)c3)nc3[nH]cnc23)cn1 [Example 13, N-{3-[6-(4-Methyl-imidazol-1-yl)-9H-purin-2-ylamino]-phenyl}-methanesulfonamide], which melting point is on record?
**A.** 298 to 301 °C

**Q.** For CS(=O)(=O)Nc1ccc(Nc2nc(NC3CCCC3)c3nc[nH]c3n2)cc1 [Example 44, N-[4-(6-Cyclopentylamino-9H-purin-2-ylamino)-phenyl]-methanesulfonamide], which melting point is on record?
**A.** 261 to 265 °C

**Q.** With CS(=O)(=O)Nc1cccc(Nc2nc(NCc3ccccc3O)c3nc[nH]c3n2)c1 [Example 94, N-{3-[6-(2-Hydroxy-benzylamino)-9H-purin-2-ylamino]-phenyl}-methanesulfonamide] as the compound, how does the melting point read?
**A.** 168 to 171 °C

**Q.** For CS(=O)(=O)Nc1cccc(Nc2nc(N3CCN(c4ccncc4)CC3)c3nc[nH]c3n2)c1 [Example 7, N-{3-[6-(4-Pyridin-4-yl-piperazin-1-yl)-9H-purin-2-ylamino]-phenyl}-methanesulfonamide], which melting point is on record?
**A.** 227 to 230 °C

**Q.** For CS(=O)(=O)Nc1cccc(Nc2nc(NC3CN4CCC3CC4)c3nc[nH]c3n2)c1 (centres unmarked), which melting point is on record?
**A.** 200 to 204 °C

**Q.** For CN(C)c1ccc(CNc2nc(Nc3cccc(NS(C)(=O)=O)c3)nc3[nH]cnc23)cc1 [Example 20, N-{3-[6-(4-Dimethylamino-benzylamino)-9H-purin-2-ylamino]-phenyl}-methanesulfonamide], which melting point is on record?
**A.** 138 to 142 °C

**Q.** For C[C@H](Nc1nc(Nc2cccc(NS(C)(=O)=O)c2)nc2[nH]cnc12)c1ccccc1 [Example 40, N-{3-[6-((S)-1-Phenyl-ethylamino)-9H-purin-2-ylamino]-phenyl}-methanesulfonamide], which melting point is on record?
**A.** 141 to 144 °C

**Q.** With CC(C)(CO)Nc1nc(Nc2cccc(NS(C)(=O)=O)c2)nc2[nH]cnc12 [Example 16, N-{3-[6-(2-Hydroxy-1,1-dimethyl-ethylamino)-9H-purin-2-ylamino]-phenyl}-methanesulfonamide] as the compound, how does the melting point read?
**A.** 215 to 218 °C

**Q.** For CS(=O)(=O)Nc1cccc(Nc2nc(NCc3ccccc3CO)c3nc[nH]c3n2)c1 [Example 93, N-{3-[6-(2-Hydroxymethyl-benzylamino)-9H-purin-2-ylamino]-phenyl}-methanesulfonamide], which melting point is on record?
**A.** 145 to 148 °C

**Q.** Which melting point does the source give for CS(=O)(=O)Nc1cccc(Nc2nc(NCCO)c3nc[nH]c3n2)c1 [Example 17, N-{3-[6-(2-Hydroxy-ethylamino)-9H-purin-2-ylamino]-phenyl}-methanesulfonamide] here?
**A.** 163 to 166 °C

**Q.** Which melting point does the source give for CS(=O)(=O)Nc1cccc(Nc2nc(NCCc3c[nH]cn3)c3nc[nH]c3n2)c1 [Example 4, N-(3-{6-[2-(1H-Imidazol-4-yl)-ethylamino]-9H-purin-2-ylamino]-phenyl}-methanesulfonamide] here?
**A.** 205 to 210 °C

**Q.** Which melting point does the source give for CS(=O)(=O)Nc1cccc(Nc2nc(NCC(O)CO)c3nc[nH]c3n2)c1 (centres unmarked) [Example 11, N-{3-[6-(2,3-Dihydroxy-propylamino)-9H-purin-2-ylamino]-phenyl}-methanesulfonamide] here?
**A.** 164 to 168 °C

**Q.** Which melting point does the source give for CC(C)Nc1nc(Nc2cccc(NS(C)(=O)=O)c2)nc2[nH]cnc12 [Example 2, N-[3-(6-Isopropylamino-9H-purin-2-ylamino)-phenyl]-methanesulfonamide] here?
**A.** 161 to 165 °C
